Results published in the NIST ThermoML archive (doi:10.1021/je900293j).
± gives the expanded uncertainty stated by the source.

Conditions: Transpiration method

Row | SMILES | vapor or sublimation pressure (283.15 K, Crystal) [kPa] | vapor or sublimation pressure (293.15 K, Crystal) [kPa] | vapor or sublimation pressure (303.15 K, Crystal) [kPa] | vapor or sublimation pressure (313.15 K, Crystal) [kPa] | vapor or sublimation pressure (283.15 K, Liquid) [kPa] | vapor or sublimation pressure (293.15 K, Liquid) [kPa] | vapor or sublimation pressure (303.15 K, Liquid) [kPa] | vapor or sublimation pressure (313.15 K, Liquid) [kPa]
1 | Cc1ccc([N+](=O)[O-])cc1 [1-methyl-4-nitrobenzene] | 0.00125 ± 0.00018 | 0.00379 ± 0.00055 | 0.0102 ± 0.0015 | 0.0264 ± 0.0038 |  |  |  | 
2 | Cc1ccccc1[N+](=O)[O-] [2-nitrotoluene] |  |  |  |  | 0.00553 ± 0.0008 | 0.0127 ± 0.0018 | 0.0297 ± 0.0043 | 0.0611 ± 0.0088
3 | Cc1cccc([N+](=O)[O-])c1 [3-nitrotoluene] | 0.00339 ± 0.00049 |  |  |  |  | 0.00855 ± 0.0012 | 0.0195 ± 0.0028 | 0.0378 ± 0.0055
4 | CCCCCCCCCCCCCC [tetradecane] |  |  |  |  | 0.000427 ± 1.7e-05 | 0.00121 ± 5e-05 | 0.00322 ± 0.00013 | 0.0081 ± 0.00031
